Data as given in PMC7703437, “In Vitro Hepatic Metabolism of Curcumin Diethyl Disuccinate by Liver S9 from Different Animal Species” (Frontiers in Pharmacology, 2020).
Values joined by “and” are separate entries in the source; they are usually repeats but may differ in a detail not shown here. Identical values can stand only once.

Experiments:
MLS9 = assay: CDD depletion in MLS9 0.02 mg/ml (optimisation of incubation condition); type: in vitro ADME, monkey; conditions: CDD 3 μM
Procedure: The metabolism profiles of CDD and curcumin formation profile were investigated against HLS9, MLS9, DLS9 and RLS9. A stock solution of CDD was prepared at 150 µM in 50% acetonitrile in water before use. The metabolism study was initiated by spiking a 588 µl pre-incubated LS9 with 12 µl CDD stock solution, and subsequently incubated at 37°C. The final concentrations of CDD and LS9 were 3 µM and 0.02 mg/ml, respectively. A 50 µl aliquot from the mixture was collected at 0.5, 1, 2, 3, 4, 5, 10, 15, 30, 45 and 60 min and was immediately mixed with 100 µl of ice-cold acetonitrile containing 0.45 µM of internal standard DMC to terminate the metabolic reaction. […] Samples of 120 µl of supernatant wee diluted with 40 µl of water prior to UHPLC analysis (Agilent series 1290, Agilent Technology, USA) by means of protocol outlined in Materials and Methods:“In vitro Metabolism Profiling of Curcumin Diethyl Disuccinate”. The sample at 0 min was prepared as other samples except that heat-inactivated HLS9, MLS9, DLS9 and RLS9 (80°C for 20 min; 1 mg/ml protein) were used. Duplicates were conducted for each experiment.
The peak area ratios of CDD and curcumin to internal standard in the supernatant were determined. The percent contents of CDD and curcumin were plotted against incubation time. The depletion of CDD was calculated with reference to the initial concentration. The saturated substrate was defined as % depletion less than 30.

dog LS9 (DLS9; beagle) = assay: In vitro metabolism profiling of CDD in dog liver S9 (1 mg/ml); type: in vitro ADME
Procedure: (§1) The metabolism profiles of CDD were investigated against HLS9, MLS9, DLS9, and RLS9. A stock solution of CDD was prepared at 150 µM in 50% acetonitrile in water before use. The metabolism study was initiated by spiking 735 µl of preincubated LS9 with 15 µl of CDD stock solution, and the mixture was subsequently incubated at 37°C. The final concentrations of CDD and LS9 were 3 μM and 1 mg/ml, respectively. A 50-µl aliquot from the mixture was collected at 0.5, 1, 2, 3, 4, 5, 10, 15, 30, 45, 60, 90, and 120 min and immediately mixed with 100 µl of ice-cold acetonitrile containing 0.45 µM of internal standard DMC to terminate the metabolic reaction. […] The sample at the initial time point (0 min) was prepared as the other samples, except that heat-inactivated HLS9, MLS9, DLS9, and RLS9 (80°C for 20 min; 1 mg/ml protein) were used.
(§2) The UHPLC system consisted of an Agilent series 1290 quaternary pump with an online degasser, autosampler, column oven, and diode array detector. The mobile phase was composed of (A) 0.1% (v/v) formic acid in acetonitrile and (B) 0.1% (v/v) formic acid in water. Each solution was filtered through a nylon filter (pore size, 0.22 µm; MS® Membrane Filters; Membrane Solutions, United States) before use. The mobile phase flow rate was kept at 1.2 ml/min in a gradient mode using the following elution program: 0–3.0 min, initial A-B (40:60, v/v); 4.5–7.0 min, isocratic elution A-B [50:50, (v/v); 8.5–11.0 min, isocratic elution A-B (60:40, v/v); and 12.0–17.0 min, isocratic elution A-B (40:60, v/v)]. CDD, curcumin, and MSCUR in the supernatant were partitioned using a C8 column (4.6 mm × 50 mm, 2.7 µm; HALO, Advanced Materials Technology, United States) with reference to DMC. The detection wavelength was set at 400 nm (λ max(CDD) = 400 nm, λ max(curcumin) = 427 nm, λ max(MSCUR) = 418 nm, and λ max(DMC) = 421 nm). The column was maintained at 35°C throughout the run, and the supernatant injection volume was set at 20 µl.
(§3) The concentrations of CDD, curcumin, and MSCUR in the supernatant were determined from the standard plots, which were prepared by spiking individual working solutions of the compounds to heat-inactivated HLS9, MLS9, DLS9, and RLS9 ([Alcorn et al., 2007]; [Montoro-Garcia et al., 2009]; [Singh et al., 2010]). These working standards were extracted with 100 µl of ice-cold acetonitrile containing 0.45 µM of DMC and then 120 μl of the supernatant was diluted with 40 μl of water prior to the UHPLC analysis. The peak area ratios of CDD, curcumin, and MSCUR to the internal standard were computed against linear concentration ranges of 0.025–4.5 µM CDD, 0.025–4.5 µM curcumin, and 0.0125–0.75 µM MSCUR, respectively, with the coefficient of determination (r^2) values greater than 0.99.
(§4) The percent content of CDD and the metabolites formed upon its incubation with LS9, namely, curcumin and MSCUR, was plotted against incubation time.
(§5) The following equations were adopted to describe the changes in CDD and MSCUR content over time (t): A = A0e^−k1t (2) B= k1A0/k2−k1(e^−k1t−e^−k2t), (3) where A0 is the CDD concentration at time 0, k 1 is the degradation rate constant of CDD, and k 2 is the degradation rate constant of MSCUR. k 1 and k 2 were determined by using Eqs. 2 and 3, respectively, with nonlinear regression analysis using the SOLVER function of Microsoft Excel for Office 365 MSO (16.0.12527.20986) ([Brown, 2001]). The half-life (t 1/2) was calculated using Eq. 4: t1/2=0.693/k (4)
(§6) The in vitro intrinsic clearance (CLint,in vitro) of CDD and MSCUR in LS9 was calculated using Eq. 5: CLint, in vitro= k × [V]incubation(ml)/[P]incubation(mg protein), (5) where [V]incubation is the incubation volume in ml, and [P]incubation is the amount of LS9. […]

[1] = as above; type: in vitro ADME, dog (beagle); conditions: beagle, liver S9; dog LS9 1 mg/ml; read-out: t 1/2 (CDD)
Procedure: as §1, §2, §3, §4, §5, §6

[2] = system: monkey LS9 (MLS9; cynomolgus); assay: In vitro metabolism profiling of CDD in monkey liver S9 (1 mg/ml); type: in vitro ADME
Procedure: as §1, §2, §3, §4, §5, §6

[3] = as above; type: in vitro ADME, monkey (cynomolgus); conditions: liver S9; monkey LS9 1 mg/ml; read-out: t 1/2 (CDD)
Procedure: as §1, §2, §3, §4, §5, §6

% CDD remaining (MLS9; 0.5 min): 75.32%
%Depletion of CDD (MLS9; 0.5 min (selected incubation time)): 25% and 24.68%
% CDD remaining (MLS9; 1 min): 63.90%
%Depletion of CDD (MLS9; 1 min): 36.10%
% CDD remaining (MLS9; 2 min): 49.34%
%Depletion of CDD (MLS9; 2 min): 50.66%
% CDD remaining (MLS9; 3 min): 37.51%
%Depletion of CDD (MLS9; 3 min): 62.49%
% CDD remaining (MLS9; 4 min): 28.36%
%Depletion of CDD (MLS9; 4 min): 71.64%
% CDD remaining (MLS9; 5 min): 21.92%
%Depletion of CDD (MLS9; 5 min): 78.08%
CLint, in vitro(CDD) (dog LS9 (DLS9; beagle); dog LS9): 0.85 ± 0.29 ml min^−1 mg protein^−1
k 1 (CDD) (dog LS9 (DLS9; beagle); dog LS9 1 mg/ml, CDD 3 µM, 37°C): 0.85 ± 0.29 min⁻¹
CLint, in vivo(CDD) (dog LS9 (DLS9; beagle); dog, scaled from CLint,in vitro with physiologically based scaling factors): 198.61 ± 66.73 L/h/kg
CLint, in vivo total (dog LS9 (DLS9; beagle); dog, sum of CLint,in vivo(CDD) and CLint,in vivo(MSCUR)): 5,915.59 ± 535.14 L h^−1 kg^−1
CLH (predicted hepatic clearance) (dog LS9 (DLS9; beagle); dog, well-stirred model, QH 40 ml min^−1 kg^−1, fup 0.0594): 2.38 ± 1.48 × 10^–3 L h^−1 kg^−1
half-life at 3 µM [1]: 52.2 ± 15 s
CLint, in vitro(CDD) ([2]; monkey LS9): 0.81 ± 0.13 ml min^−1 mg protein^−1
k 1 (CDD) ([2]; monkey LS9 1 mg/ml, CDD 3 µM, 37°C): 0.81 ± 0.13 min⁻¹
CLint, in vivo(CDD) ([2]; monkey, scaled from CLint,in vitro with physiologically based scaling factors): 176.96 ± 27.49 L/h/kg
CLint, in vivo total ([2]; monkey, sum of CLint,in vivo(CDD) and CLint,in vivo(MSCUR)): 4,704.26 ± 695.64 L h^−1 kg^−1
CLH (predicted hepatic clearance) ([2]; monkey, well-stirred model, QH 44 ml min^−1 kg^−1, fup 0.0594): 2.61 ± 3.87 × 10^–3 L h^−1 kg^−1
half-life at 3 µM [3]: 52.2 ± 7.8 s
Compound: CCOC(=O)CCC(=O)Oc1ccc(/C=C/C(=O)/C=C(O)/C=C/c2ccc(OC(=O)CCC(=O)OCC)c(OC)c2)cc1OC [CDD, curcumin diethyl disuccinate]
